The text below walks through data of US10285989B2, “Pyrimidinone amide compounds as PDE2 inhibitors” (Merck Sharp & Dohme Corp., priority 2015, dated 2019).

One series addresses Rhesus PDE2A3 (Macaca mulatta, UniProt B3VTJ2). Kind of series: PDE2 fluorescence polarization (IMAP FP) inhibition assay, rhesus PDE2A3. Type of series: biochemical, rhesus macaque.
For the next series, the target named is P-glycoprotein (P-gp) (Homo sapiens (Human), UniProt P08183). In words: P-gp transport, experimental BA/AB ratio, human. Type of series: in vitro ADME. Conditions: LLC-PK1, 1 μM substrate concentration. An excerpt:
(§1) See Doan et al. “Passive permeability and P-glycoprotein-mediated efflux differentiate central nervous system (CNS) and non-CNS marketed drugs”, J. Pharm. Exper. […] Desirable human BA/AB ratio is less than 2.0. […] See, for example, Desai, et al. Integration of in Silico and in Vitro Tools for Scaffold Optimization during Drug Discovery: Predicting P-glycoprotein Efflux” Mol. Pharmac.

The next series concerns the target human PDE2A1 (Homo sapiens (Human), UniProt O00408). Kind of series: PDE2 IMAP FP inhibition assay, human PDE2A1 (selectivity panel format). Type of series: biochemical. Put shortly: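 IMAP fluorescence polarization assay; substrate 50 nM FAM-cAMP with 1000 nM cGMP, enzyme at ~20% conversion, in 10 mM Tris pH 7.2, 10 mM MgCl2, 1 mM DTT, 0.01% Tween-20. 60 min room temperature, stopped with IMAP binding reagent, 1 h, then parallel/perpendicular fluorescence read.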

For series [1], the target named is P-glycoprotein (P-gp, rat Mdr1a) (Rattus norvegicus, UniProt Q6PSM0). In words: P-gp transport, experimental BA/AB ratio, rat LLC-Mdr1a. Type of series: in vitro ADME. Conditions: LLC-PK1; rat LLC-Mdrla; 1 μM substrate concentration.
Description: as §1

The mark [2] stands for this setting: Lab A, read-out: Rhesus PDE2 Ki (nM) - Lab A.
[3] abbreviates: Lab B, read-out: Rhesus PDE2 Ki (nM) - Lab B.
The mark [4] stands for this setting: Lab A, read-out: Human PDE2 Ki (nM) - Lab A.
The mark [5] stands for this setting: Lab B, read-out: Human PDE2 Ki (nM) - Lab B.
Where [6] appears, read: Rhesus PDE2 Ki (nM) - Lab B, Lab B.

Each structure is given as a SMILES string. Read-outs that look alike come from different tables or passages of the source.

P-glycoprotein (P-gp), sequence (P08183 whole entry): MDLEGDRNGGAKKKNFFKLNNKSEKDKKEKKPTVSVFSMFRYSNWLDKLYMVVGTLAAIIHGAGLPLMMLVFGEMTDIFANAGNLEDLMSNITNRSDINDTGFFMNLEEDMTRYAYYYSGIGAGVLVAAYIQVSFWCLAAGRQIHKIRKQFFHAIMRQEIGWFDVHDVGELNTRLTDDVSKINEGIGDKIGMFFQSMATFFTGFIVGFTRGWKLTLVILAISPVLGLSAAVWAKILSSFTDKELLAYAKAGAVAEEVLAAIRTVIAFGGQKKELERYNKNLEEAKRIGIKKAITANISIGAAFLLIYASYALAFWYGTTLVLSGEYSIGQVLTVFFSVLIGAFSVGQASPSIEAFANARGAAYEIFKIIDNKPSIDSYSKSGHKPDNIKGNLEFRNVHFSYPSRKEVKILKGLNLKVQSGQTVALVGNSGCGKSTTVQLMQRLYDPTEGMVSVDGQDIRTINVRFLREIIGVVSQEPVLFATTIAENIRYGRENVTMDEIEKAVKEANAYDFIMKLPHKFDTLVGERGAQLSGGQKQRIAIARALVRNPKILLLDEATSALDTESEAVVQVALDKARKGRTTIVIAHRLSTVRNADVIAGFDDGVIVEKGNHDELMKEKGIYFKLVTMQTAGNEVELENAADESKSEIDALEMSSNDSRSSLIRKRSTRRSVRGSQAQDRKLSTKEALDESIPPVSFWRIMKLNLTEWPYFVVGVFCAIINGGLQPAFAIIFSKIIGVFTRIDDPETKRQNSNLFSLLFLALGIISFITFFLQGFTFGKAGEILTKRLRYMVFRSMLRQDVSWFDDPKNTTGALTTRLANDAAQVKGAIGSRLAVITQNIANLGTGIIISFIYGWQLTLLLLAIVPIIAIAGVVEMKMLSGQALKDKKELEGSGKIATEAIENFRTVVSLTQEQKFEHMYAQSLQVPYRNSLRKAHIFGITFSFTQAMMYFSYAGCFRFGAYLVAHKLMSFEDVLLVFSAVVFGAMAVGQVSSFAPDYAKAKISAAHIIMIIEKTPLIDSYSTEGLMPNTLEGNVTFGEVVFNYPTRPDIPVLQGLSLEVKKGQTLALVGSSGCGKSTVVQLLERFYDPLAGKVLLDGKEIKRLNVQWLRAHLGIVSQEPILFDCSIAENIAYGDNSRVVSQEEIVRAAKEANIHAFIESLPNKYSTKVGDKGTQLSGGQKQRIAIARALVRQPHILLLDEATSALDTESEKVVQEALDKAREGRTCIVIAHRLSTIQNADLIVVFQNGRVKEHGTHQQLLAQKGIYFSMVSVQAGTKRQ
Rhesus PDE2A3, sequence (B3VTJ2 1-941): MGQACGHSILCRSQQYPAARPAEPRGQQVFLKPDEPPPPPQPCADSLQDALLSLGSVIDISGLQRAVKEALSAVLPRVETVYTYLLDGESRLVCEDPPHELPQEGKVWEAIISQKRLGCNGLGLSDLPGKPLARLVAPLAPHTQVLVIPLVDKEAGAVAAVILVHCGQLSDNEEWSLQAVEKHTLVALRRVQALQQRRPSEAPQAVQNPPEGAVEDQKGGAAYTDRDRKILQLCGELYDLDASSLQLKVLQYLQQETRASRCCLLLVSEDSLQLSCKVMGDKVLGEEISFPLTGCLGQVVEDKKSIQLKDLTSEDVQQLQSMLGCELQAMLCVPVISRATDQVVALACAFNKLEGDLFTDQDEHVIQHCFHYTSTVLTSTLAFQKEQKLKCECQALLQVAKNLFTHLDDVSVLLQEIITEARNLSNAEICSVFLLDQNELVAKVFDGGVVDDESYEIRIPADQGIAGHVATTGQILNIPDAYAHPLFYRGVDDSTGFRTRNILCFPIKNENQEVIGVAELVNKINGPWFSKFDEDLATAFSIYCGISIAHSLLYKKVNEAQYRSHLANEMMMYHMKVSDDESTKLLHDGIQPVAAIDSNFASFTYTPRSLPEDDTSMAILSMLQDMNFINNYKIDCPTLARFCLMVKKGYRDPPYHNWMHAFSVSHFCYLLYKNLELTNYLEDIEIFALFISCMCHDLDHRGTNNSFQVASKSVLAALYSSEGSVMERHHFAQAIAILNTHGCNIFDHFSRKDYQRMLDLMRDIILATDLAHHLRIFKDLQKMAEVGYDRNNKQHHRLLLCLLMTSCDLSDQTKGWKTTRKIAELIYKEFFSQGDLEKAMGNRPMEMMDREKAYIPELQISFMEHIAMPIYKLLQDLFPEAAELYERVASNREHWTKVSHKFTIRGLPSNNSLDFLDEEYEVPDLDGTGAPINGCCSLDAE
P-glycoprotein (P-gp, rat Mdr1a), sequence (Q6PSM0 1-1272): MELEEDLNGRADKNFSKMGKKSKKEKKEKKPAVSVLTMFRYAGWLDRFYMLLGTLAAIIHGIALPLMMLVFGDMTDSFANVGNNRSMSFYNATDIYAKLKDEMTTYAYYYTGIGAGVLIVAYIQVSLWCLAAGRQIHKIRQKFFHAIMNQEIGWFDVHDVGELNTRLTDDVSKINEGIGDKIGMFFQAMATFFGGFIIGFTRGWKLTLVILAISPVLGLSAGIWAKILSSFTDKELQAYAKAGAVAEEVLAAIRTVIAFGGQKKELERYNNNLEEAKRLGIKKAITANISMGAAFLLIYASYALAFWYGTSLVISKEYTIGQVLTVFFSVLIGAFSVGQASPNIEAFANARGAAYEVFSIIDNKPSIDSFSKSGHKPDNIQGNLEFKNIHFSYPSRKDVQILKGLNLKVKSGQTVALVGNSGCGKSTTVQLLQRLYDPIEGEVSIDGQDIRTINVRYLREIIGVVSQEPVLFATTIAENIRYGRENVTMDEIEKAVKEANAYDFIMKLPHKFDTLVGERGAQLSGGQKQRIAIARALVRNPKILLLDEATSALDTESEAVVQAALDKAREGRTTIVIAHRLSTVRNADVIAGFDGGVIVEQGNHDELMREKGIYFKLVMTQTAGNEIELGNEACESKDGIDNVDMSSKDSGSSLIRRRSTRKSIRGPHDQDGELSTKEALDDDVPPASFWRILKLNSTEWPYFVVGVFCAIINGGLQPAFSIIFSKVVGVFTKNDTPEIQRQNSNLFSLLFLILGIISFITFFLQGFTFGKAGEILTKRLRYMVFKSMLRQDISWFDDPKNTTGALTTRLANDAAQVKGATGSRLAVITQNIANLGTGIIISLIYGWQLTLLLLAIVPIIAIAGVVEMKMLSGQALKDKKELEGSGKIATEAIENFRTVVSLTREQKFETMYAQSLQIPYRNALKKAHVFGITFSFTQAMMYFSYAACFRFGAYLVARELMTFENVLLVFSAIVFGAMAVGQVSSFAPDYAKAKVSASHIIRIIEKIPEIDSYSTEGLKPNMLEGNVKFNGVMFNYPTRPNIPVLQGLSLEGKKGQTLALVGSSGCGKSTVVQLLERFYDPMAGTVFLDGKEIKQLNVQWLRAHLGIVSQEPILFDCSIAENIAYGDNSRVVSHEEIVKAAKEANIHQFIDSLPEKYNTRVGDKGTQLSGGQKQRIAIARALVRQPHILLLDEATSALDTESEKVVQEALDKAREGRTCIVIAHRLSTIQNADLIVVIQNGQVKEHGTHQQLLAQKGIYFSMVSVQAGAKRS
human PDE2A1, sequence (O00408 other isoform, or with tags, fused parts or gaps): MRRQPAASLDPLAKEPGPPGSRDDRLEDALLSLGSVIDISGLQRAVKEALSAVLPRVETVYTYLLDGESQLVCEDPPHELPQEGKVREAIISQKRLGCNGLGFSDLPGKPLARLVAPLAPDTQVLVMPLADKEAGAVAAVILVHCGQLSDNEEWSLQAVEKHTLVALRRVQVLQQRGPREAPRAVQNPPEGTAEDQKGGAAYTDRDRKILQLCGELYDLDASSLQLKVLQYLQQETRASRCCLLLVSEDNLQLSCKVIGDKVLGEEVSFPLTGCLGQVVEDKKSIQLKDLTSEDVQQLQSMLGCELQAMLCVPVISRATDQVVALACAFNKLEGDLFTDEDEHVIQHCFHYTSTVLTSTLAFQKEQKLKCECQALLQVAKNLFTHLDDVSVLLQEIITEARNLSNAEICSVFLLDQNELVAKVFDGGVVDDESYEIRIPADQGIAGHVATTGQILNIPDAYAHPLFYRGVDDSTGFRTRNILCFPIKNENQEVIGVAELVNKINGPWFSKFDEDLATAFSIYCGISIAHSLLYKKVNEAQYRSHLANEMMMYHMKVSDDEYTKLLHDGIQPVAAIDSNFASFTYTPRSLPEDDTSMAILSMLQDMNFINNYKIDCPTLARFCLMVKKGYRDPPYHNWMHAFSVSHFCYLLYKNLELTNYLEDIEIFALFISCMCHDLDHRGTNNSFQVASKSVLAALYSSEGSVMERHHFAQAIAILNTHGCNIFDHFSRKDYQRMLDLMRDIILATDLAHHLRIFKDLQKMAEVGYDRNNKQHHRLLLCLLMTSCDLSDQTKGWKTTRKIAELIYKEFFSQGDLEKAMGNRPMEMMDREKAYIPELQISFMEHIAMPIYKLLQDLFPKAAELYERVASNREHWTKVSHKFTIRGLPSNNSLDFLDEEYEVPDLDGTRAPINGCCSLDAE

As a reminder, the Ki is a measure of affinity in units of concentration, obtained from inhibition or displacement. Usually efflux ratio stands for a quotient of directional permeabilities that is used to spot active efflux. Regarding `C[C@@H](NC(=O)c1cc(=O)[nH]c(N(C)C)n1)c1ccc(SC(F)(F)F)cc1` [Example 143, 2-(dimethylamino)-6-oxo-N-[(1R)-1-{4-[(trifluoromethyl)sulfanyl]phenyl}ethyl]-1,6-dihydropyrimidine-4-carboxamide], the inhibition constant (Ki) on Rhesus PDE2A3 (setting [2]) is 0.57 nM; on Rhesus PDE2A3 (setting [3]) it was 0.61 nM; on human PDE2A1 (setting [4]), 0.32 nM; on human PDE2A1 (setting [5]), 0.82 nM. The figures for the efflux ratio at 1 μM (on P-glycoprotein (P-gp); in series [1]) were 0.5 and 2.5, respectively.
Consider `CN(C)c1nc(C(=O)N[C@@H](c2ccc(OC(F)F)cc2)C(C)(C)C)cc(=O)[nH]1` [Example 34, N-{(1R)-1-[4-(difluoromethoxy)phenyl]-2,2-dimethylpropyl}-2-(dimethylamino)-6-oxo-1,6-dihydropyrimidine-4-carboxamide], for which the Ki on Rhesus PDE2A3 (setting [3]) was found to be 0.46 nM; at human PDE2A1 (setting [5]), 0.39 nM. Moreover, the efflux ratio at 1 μM was 2 on P-glycoprotein (P-gp) and 12.7 in series [1].
As for `CC(C)[C@@H](NC(=O)c1cc(=O)[nH]c(N2CCC2)n1)c1ccc(SC(F)(F)F)cc1` [Example 148, 2-azetidin-1-yl-N-[(1R)-2-methyl-1-{4-[(trifluoromethyl)sulfanyl]phenyl}propyl]-6-oxo-1,6-dihydropyrimidine-4-carboxamide], the values for the Ki at Rhesus PDE2A3 (setting [2]) and at human PDE2A1 (setting [4]) were 0.42 nM and 0.2 nM, respectively. Moreover, the efflux ratio at 1 μM on P-glycoprotein (P-gp) was 1.3; in series [1], 9.5.
For `CN(C)c1nc(C(=O)N[C@@H](c2ccc(C(F)F)cc2)C2(C)CC2)cc(=O)[nH]1` [Example 61, N-[(R)-[4-(difluoromethyl)phenyl](1-methylcyclopropyl)methyl]-2-(dimethylamino)-6-oxo-1,6-dihydropyrimidine-4-carboxamide], the Ki on Rhesus PDE2A3 (setting [3]) worked out at 0.82 nM; on human PDE2A1 (setting [5]), 0.75 nM. In addition, the figures for the efflux ratio at 1 μM (at P-glycoprotein (P-gp); in series [1]) were 1.6 and 12.3, respectively.
`CC(C)C(C)(NC(=O)c1cc(=O)[nH]c(N(C)C)n1)c1ccc(S(F)(F)(F)(F)F)cc1` (single isomer, unassigned) [Example 173, (S)- or (R)-2-(dimethylamino)-N-{1,2-dimethyl-1-[4-(pentafluoro-λ^6-sulfanyl)phenyl]propyl}-6-oxo-1,6-dihydropyrimidine-4-carboxamide]: the values for the inhibition constant (Ki) on Rhesus PDE2A3 (setting [6]) and on human PDE2A1 (setting [5]) were 6.6 nM and 6.5 nM, respectively. Also, the figures for the efflux ratio at 1 μM (on P-glycoprotein (P-gp); in series [1]) were 0.8 and 3.6, respectively.
In the case of `CN(C)c1nc(C(=O)N[C@@H](c2ccc(SC(F)(F)F)c(F)c2)C2CC2)cc(=O)[nH]1` [Example 97, N-[(R)-cyclopropyl{3-fluoro-4-[(trifluoromethyl)sulfanyl]phenyl}methyl]-2-(dimethylamino)-6-oxo-1,6-dihydropyrimidine-4-carboxamide], the Ki is 0.62 nM at Rhesus PDE2A3 (setting [2]) and 0.34 nM on human PDE2A1 (setting [4]). Moreover, the efflux ratio at 1 μM at P-glycoprotein (P-gp) came to 0.4; in series [1], 1.8.
As to `CN(C)c1nc(C(=O)NC(C)(C)c2ccc(C(F)(F)F)c(F)c2)cc(=O)[nH]1` [Example 93, 2-(dimethylamino)-N-{1-[3-fluoro-4-(trifluoromethyl)phenyl]-1-methylethyl}-6-oxo-1,6-dihydropyrimidine-4-carboxamide], the inhibition constant (Ki) stood at 4 nM on Rhesus PDE2A3 (setting [2]) and 3.8 nM at human PDE2A1 (setting [4]). Besides, the efflux ratio at 1 μM was determined as 0.3 on P-glycoprotein (P-gp) and 1.9 in series [1].
As to `CN(C)c1nc(C(=O)NC(c2ccc(S(F)(F)(F)(F)F)cc2F)C(C)(C)C)cc(=O)[nH]1` (single isomer, unassigned) [Example 128, (R)- or (S)-2-(dimethylamino)-N-{1-[2-fluoro-4-(pentafluoro-λ^6-sulfanyl)phenyl]-2,2-dimethylpropyl}-6-oxo-1,6-dihydropyrimidine-4-carboxamide], the inhibition constant (Ki) on Rhesus PDE2A3 (setting [3]) worked out at 0.22 nM; at human PDE2A1 (setting [5]), 0.15 nM. Moreover, the efflux ratio at 1 μM was found to be 1.4 at P-glycoprotein (P-gp) and 4.8 in series [1].
As to `CC(C)[C@@H](NC(=O)c1cc(=O)[nH]c(N(C)C)n1)c1ccc(SC(F)(F)F)c(F)c1` [Example 150, 2-(dimethylamino)-N-[(1R)-1-{3-fluoro-4-[(trifluoromethyl)sulfanyl]phenyl}-2-methylpropyl]-6-oxo-1,6-dihydropyrimidine-4-carboxamide], the values for the inhibitory constant (Ki) at Rhesus PDE2A3 (setting [2]), on Rhesus PDE2A3 (setting [3]) and on human PDE2A1 (setting [5]) were 0.24 nM, 0.29 nM and 0.29 nM, respectively. Besides, the values for the efflux ratio at 1 μM (at P-glycoprotein (P-gp); in series [1]) were 1.1 and 4.4, respectively.
`CN(C)c1nc(C(=O)NC(C)(C)c2ccc(C(F)(F)F)cc2Cl)cc(=O)[nH]1` [Example 80, N-{1-[2-chloro-4-(trifluoromethyl)phenyl]-1-methylethyl}-2-(dimethylamino)-6-oxo-1,6-dihydropyrimidine-4-carboxamide]: the inhibition constant (Ki) on Rhesus PDE2A3 (setting [3]) turned out to be 0.65 nM; on human PDE2A1 (setting [5]), 0.79 nM. In addition, the efflux ratio at 1 μM on P-glycoprotein (P-gp) is 0.4; in series [1] it was 1.7.
For the molecule `CC(C)[C@@H](NC(=O)c1cc(=O)[nH]c(N(C)C)n1)c1ccc(OC(F)F)c(F)c1` [Example 48, N-{(1R)-1-[4-(difluoromethoxy)-3-fluorophenyl]-2-methylpropyl}-2-(dimethylamino)-6-oxo-1,6-dihydropyrimidine-4-carboxamide], the inhibition constant Ki came to 1.9 nM on Rhesus PDE2A3 (setting [3]) and 1.7 nM at human PDE2A1 (setting [5]). Moreover, the efflux ratio at 1 μM at P-glycoprotein (P-gp) turned out to be 1.5; in series [1], 6.4.
With `C[C@@H](NC(=O)c1cc(=O)[nH]c(N2CCCC2)n1)c1ccc(C(F)(F)F)cc1` [Example 6, (R)-6-oxo-2-(pyrrolidin-1-yl)-N-(1-(4-(trifluoromethyl)phenyl)ethyl)-1,6-dihydropyrimidine-4-carboxamide], the figures for the Ki on Rhesus PDE2A3 (setting [2]) and on human PDE2A1 (setting [4]) were 2.5 nM and 1.7 nM, respectively. In addition, the efflux ratio at 1 μM on P-glycoprotein (P-gp) came out at 0.5; in series [1], 3.2.
For the molecule `CC[C@@H](NC(=O)c1cc(=O)[nH]c(N(C)C)n1)c1ccc(OC(F)(F)F)cc1` [Example 105, 2-(dimethylamino)-6-oxo-N-{(1R)-1-[4-(trifluoromethoxy)phenyl]propyl}-1,6-dihydropyrimidine-4-carboxamide], the Ki on Rhesus PDE2A3 (setting [2]) worked out at 1 nM; at Rhesus PDE2A3 (setting [3]), 1.8 nM; on human PDE2A1 (setting [5]), 1.6 nM. For the same molecule, the results for the efflux ratio at 1 μM (at P-glycoprotein (P-gp); in series [1]) were 0.5 and 3.7, respectively.
With `O=C(N[C@@H](c1ccc(SC(F)(F)F)cc1)C1CC1)c1cc(=O)[nH]c(N2CCCC2)n1` [Example 27, N-[(R)-cyclopropyl{4-[(trifluoromethyl)sulfanyl]phenyl}methyl]-6-oxo-2-pyrrolidin-1-yl-1,6-dihydropyrimidine-4-carboxamide], the Ki is 0.58 nM on Rhesus PDE2A3 (setting [2]) and 0.21 nM on human PDE2A1 (setting [4]). Further, the efflux ratio at 1 μM on P-glycoprotein (P-gp) was found to be 0.8; in series [1], 7.
Take `C[C@@H](NC(=O)c1cc(=O)[nH]c(N)n1)c1ccc(SC(F)(F)F)cc1` [Example 145, 2-amino-6-oxo-N-[(1R)-1-{4-[(trifluoromethyl)sulfanyl]phenyl}ethyl]-1,6-dihydro-pyrimidine-4-carboxamide]: the inhibition constant (Ki) on Rhesus PDE2A3 (setting [2]) turned out to be 35 nM; on human PDE2A1 (setting [4]), 23 nM. Besides, the values for the efflux ratio at 1 μM (at P-glycoprotein (P-gp); in series [1]) were 3.2 and 28.9, respectively.
Turning to `CN(C)c1nc(C(=O)N[C@@H](c2ccc(OC(F)(F)F)c(F)c2)C2CC2)cc(=O)[nH]1` [Example 110, N-{(1R)-cyclopropyl[3-fluoro-4-(trifluoromethoxy)phenyl]methyl}-2-(dimethylamino)-6-oxo-1,6-dihydropyrimidine-4-carboxamide], the inhibitory constant (Ki) on Rhesus PDE2A3 (setting [2]) turned out to be 0.48 nM; on Rhesus PDE2A3 (setting [3]) it was 0.96 nM; on human PDE2A1 (setting [5]), 1.3 nM. Also, the efflux ratio at 1 μM stood at 0.5 at P-glycoprotein (P-gp) and 3.5 in series [1].
For `CN(C)c1nc(C(=O)N[C@@H](c2ccc(C(F)(F)F)c(F)c2)C(C)(C)C)cc(=O)[nH]1` [Example 102, 2-(dimethylamino)-N-{(1R)-1-[3-fluoro-4-(trifluoromethyl)phenyl]-2,2-dimethylpropyl}-6-oxo-1,6-dihydropyrimidine-4-carboxamide], the results for the Ki at Rhesus PDE2A3 (setting [3]) and at human PDE2A1 (setting [5]) were 0.18 nM and 0.2 nM, respectively. For the same molecule, the efflux ratio at 1 μM at P-glycoprotein (P-gp) was determined as 1.4; in series [1], 5.7.
Regarding `CN(C)c1nc(C(=O)N[C@@H](c2ccc(C(F)(F)F)cc2)C(C)(C)C)cc(=O)[nH]1` [Example 2, (R)—N-(2,2-dimethyl-1-(4-(trifluoromethyl)phenyl)propyl)-2-(dimethylamino)-6-oxo-1,6-dihydropyrimidine-4-carboxamide], the inhibition constant Ki on Rhesus PDE2A3 (setting [6]) was determined as 0.11 nM; at human PDE2A1 (setting [5]), 0.15 nM. For the same molecule, the efflux ratio at 1 μM at P-glycoprotein (P-gp) turned out to be 0.6; in series [1] it was 2.6.
As for `C[C@@H](NC(=O)c1cc(=O)[nH]c(N2CCCCC2)n1)c1ccc(C(F)(F)F)cc1` [Example 131, 6-oxo-2-piperidin-1-yl-N-{(1R)-1-[4-(trifluoromethyl)phenyl]ethyl}-1,6-dihydropyrimidine-4-carboxamide], the Ki on Rhesus PDE2A3 (setting [2]) was found to be 32 nM; on human PDE2A1 (setting [4]), 24 nM. The efflux ratio at 1 μM on P-glycoprotein (P-gp) came to 0.3; in series [1], 1.5.
